# Measurements as given in PubChem BioAssay (NCI).
#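 48-hour exposure; five concentrations; linearly interpolated endpoints. GI50 marks 50% less growth. TGI marks complete inhibition of growth.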
# System: MDA-MB-468 breast
# Assay: NCI-60 cell line screen, 48 h
SMILES,GI50 [nM],TGI [nM]
COC(=O)[C@H](C)NC(=O)NC(=O)NC(=O)CI,9140,23500
CNc1ccc(C(=O)CC(O)CCC(C)C2OC(=O)CC(O)CC(=O)CC(O)CC(O)CC(O)CC(O)CC3(O)CC(O)C(C(=O)OC)C(CC(O[C@@H]4O[C@H](C)[C@@H](O)[C@H](N)[C@@H]4O)/C=C/C=C/C=C/C=C/C=C/C=C/C=C/C2C)O3)cc1 (some centres not stated),5140,25000
C[C@@]12CC=C3c4nc(Nc5cccc(O)c5)sc4CC[C@]3(C)[C@H]1CC[C@]1(C)C(=O)CC[C@@H]21,2290,5210
CN(C)C(=O)c1cc2cnc(Nc3ccc(-c4csc5c(=S)cc(N6CCOCC6)oc45)cc3)nc2n1C1CCCC1,397,2370
CC(C)(C)c1cc(C(C)(C)C)cc(S(=O)(=O)Nc2cc3ccccc3cc2C(=O)NCCN)c1,1850,3390
COc1ccc(Cn2cc3c(c2-c2ccccc2)CC(C)(C)c2cnoc2-3)cc1,542,5910
COC(=O)[C@@H](C)CNS(=O)(=O)N(c1cc(C(F)(F)F)cc(C(F)(F)F)c1)C1CCN(Cc2ccc(F)cc2)CC1,3250,15300
COc1cc2c(c(OC)c1OC)-c1ccc(OC)c(=O)cc1[C@@H](NC(=O)c1ccccc1)CC2,55.2,> 100000
COc1ccccc1CNCCCN1C(=O)c2ccc3c4c(ccc(c24)C1=O)C(=O)N(CCCOCCCCOCCCN)C3=O,288,1320
CCCCC(O)(c1ccc(Cl)cc1)C(CN1CCOCC1)c1ccc(Cl)cc1 (configuration not stated),11200,25900
COc1cc(-c2ccc3c(c2)NC(=O)/C3=C\c2ccc[nH]2)ccc1O,179,> 50000
CCOC(=O)[C@@H](N)CCC(=O)N[C@@H](CSCc1ccccc1)C(=O)N[C@@H](C(=O)OCC)c1ccccc1,11900,24900
COc1nc2ccccc2cc1-c1nc2c(cnn2-c2ccc(Br)cc2)c(=O)[nH]1,21.9,616
CCCCCCCC/C=C/CCCCCCCC(=O)OC[C@H]1O[C@@H](n2ccc(N)nc2=O)C(F)(F)[C@@H]1O,< 28.9,3760
O=C(N/N=C/c1ccc(Cl)cc1)c1ccc(C(F)(F)F)nc1Nc1cccc(C(F)(F)F)c1,1120,4280
C=C1C(=O)O[C@H]2[C@H]1CC/C(COC(=O)C(=O)c1cn(Cc3ccccc3)c3ccccc13)=C\CC[C@@]1(C)O[C@@H]21,1880,3800
c1cc(CNC23CC4CC(CC(C4)C2)C3)cc(C[N+](Cc2cccc(CNC34CC5CC(CC(C5)C3)C4)c2)(Cc2cccc(CNC34CC5CC(CC(C5)C3)C4)c2)Cc2cccc(CNC34CC5CC(CC(C5)C3)C4)c2)c1 (configuration not stated),3330,7030
CN1CCN(Cc2ccc(NC(=O)c3cncc(C#Cc4cnc5ccc(O[C@@H]6CCOC6)nn45)c3)cc2C(F)(F)F)CC1,209,834
CC(C)n1nc(-c2cc3cc(O)ccc3[nH]2)c2c(N)ncnc21,163,1010
O=C(NC1=CC(=O)c2ccccc2C1=O)c1ccccc1,1080,2410
CN1C/C=C\CCOc2cccc(c2)-c2ccnc(n2)Nc2cccc(c2)C1,64.2,289
COc1cc2nc3cc([N+](=O)[O-])ccc3c(NCCCNCCO)c2cc1OC,193,467
NC(=O)c1c(NC(=O)c2ccc(C(F)(F)F)cc2)sc2c1CCC(=O)C2,1660,4220
NS(=O)(=O)c1ccc(N=Nc2c(O)[nH]c3ccc(-c4cnco4)cc23)cc1,> 25000,> 25000
COc1cc2ncnc(Nc3ccc(C)c(O)c3)c2cc1OC,2390,8870
COc1ccc(-c2n[nH]nc2-c2cc(OC)c(OC)c(OC)c2)cc1,< 10,< 10
